Reference: the NIST ThermoML archive (doi:10.1021/acs.jced.5b00536)
Several values for one entry are separate records, joined by “and”; a condition that tells them apart may be missing. Equal values may be shown once.

Experiment: xn = mol fraction of the nth substance listed
Conditions: x2 = 0.79; for electrical conductivity / mass density: 100 kPa, Liquid; for electrical conductivity: Alternating current cell with electrodes; for mass density: Buoyancy - hydrostatic balance; for surface tension liquid-gas: Maximal bubble pressure

[Ca+2].[F-].[F-] [calcium fluoride] + [F-].[Li+]
Conditions	electrical conductivity [S/m]	mass density	surface tension liquid-gas [mN/m]
1131.2 K	0.05865	–	–
1131.4 K	–	2066.7 kg/m3	–
1131.9 K	–	2066.7 kg/m3	–
1132.7 K	–	2065.5 kg/m3	–
1132.8 K	–	2066 kg/m3	–
1133 K	0.05876	–	–
1133.3 K	–	2064.9 kg/m3	–
1134.1 K	–	2064.2 kg/m3	–
1134.2 K	–	2064.2 kg/m3	–
1134.7 K	0.05888	–	–
1135 K	–	2063.5 kg/m3	–
1135.3 K	–	2062.4 kg/m3 and 2063 kg/m3	–
1135.7 K	–	2062.4 kg/m3	–
1136.2 K	–	2061.7 kg/m3	–
1136.4 K	0.05912	–	–
1136.5 K	–	2060.6 kg/m3	–
1136.8 K	–	2060.6 kg/m3	–
1136.9 K	–	2061.1 kg/m3	–
1137.2 K	–	2060 kg/m3	–
1137.5 K	–	2061.6 kg/m3	–
1137.8 K	–	2061 kg/m3	–
1138.1 K	0.05927	–	–
1138.2 K	–	2060.4 kg/m3	–
1138.7 K	–	2059.8 kg/m3	–
1139.3 K	–	2059.2 kg/m3	–
1139.9 K	0.05965	–	–
1140 K	–	2059.1 kg/m3	–
1140.4 K	–	2058.5 kg/m3	–
1140.8 K	–	2057.9 kg/m3	–
1141.1 K	–	2057.3 kg/m3	–
1141.4 K	–	2056.7 kg/m3	–
1141.5 K	0.05989	–	–
1142 K	–	2056.6 kg/m3	–
1142.7 K	–	2056 kg/m3	–
1143.2 K	0.06013	–	–
1143.4 K	–	2055.4 kg/m3	–
1143.5 K	–	2054.8 kg/m3	–
1144.2 K	–	2054.7 kg/m3	–
1144.4 K	–	2054.1 kg/m3	–
1144.7 K	–	2053.5 kg/m3	–
1144.9 K	0.06033	–	–
1145.2 K	–	2053.5 kg/m3	–
1145.5 K	–	2052.9 kg/m3	–
1146 K	–	2061.1 kg/m3	–
1146.5 K	0.06057	2061.1 kg/m3	–
1146.9 K	–	2060.5 kg/m3	–
1147.5 K	–	2059.8 kg/m3	–
1147.8 K	–	2059.2 kg/m3	–
1148 K	–	2059.2 kg/m3	–
1148.2 K	0.06057	–	–
1148.6 K	–	2058.6 kg/m3	–
1148.9 K	–	2058 kg/m3	–
1149 K	–	2058 kg/m3	–
1149.7 K	–	2057.4 kg/m3	–
1149.9 K	0.06079	–	–
1150.3 K	–	2056.7 kg/m3	–
1150.8 K	–	2056.7 kg/m3	–
1151 K	–	–	215.9
1151.4 K	0.06095	2056.1 kg/m3	–
1152 K	–	2055.4 kg/m3	–
1152.6 K	–	2055.4 kg/m3	–
1152.9 K	–	2054.8 kg/m3	–
1153 K	0.06111	–	–
1153.8 K	–	2054.1 kg/m3	–
1154.1 K	–	2053.5 kg/m3	–
1154.5 K	0.06131	–	–
1154.6 K	–	2053.5 kg/m3	–
1154.8 K	–	2052.3 kg/m3 and 2052.9 kg/m3	–
1155.5 K	–	2051.7 kg/m3	–
1155.6 K	–	2051.7 kg/m3	–
1155.9 K	–	2051.1 kg/m3	–
1156.2 K	0.0616	–	–
1156.5 K	–	2050.5 kg/m3	–
1156.6 K	–	2049.9 kg/m3 and 2051 kg/m3	–
1157.1 K	–	2050.4 kg/m3	–
1157.5 K	–	2050.4 kg/m3	–
1157.7 K	0.06168	2049.8 kg/m3	–
1158.8 K	–	2049.1 kg/m3	–
1159 K	–	2048.5 kg/m3	–
1159.1 K	–	2048.5 kg/m3	–
1159.2 K	0.06195	–	–
1159.9 K	–	2047.9 kg/m3	–
1160.2 K	–	2047.3 kg/m3	–
1160.7 K	0.06201	–	–
1161.3 K	–	2046.6 kg/m3	–
1161.9 K	–	2046 kg/m3	–
1162.1 K	0.062142	–	–
1162.8 K	–	2045.9 kg/m3	–
1163.2 K	–	2045.3 kg/m3	–
1163.6 K	0.062335	2044.7 kg/m3	–
1164.3 K	–	2044.6 kg/m3	–
1164.7 K	–	2048.4 kg/m3	–
1164.8 K	0.062395	–	–
1164.9 K	–	2048.4 kg/m3	–
1165.1 K	–	2048.4 kg/m3	–
1165.4 K	–	2047.8 kg/m3	–
1166.2 K	–	2047.1 kg/m3	–
1166.5 K	–	2046.5 kg/m3	–
1167.2 K	–	2046.4 kg/m3	–
1167.7 K	–	2045.8 kg/m3	–
1167.9 K	–	2045.3 kg/m3	–
1168.5 K	–	2045.2 kg/m3	–
1168.8 K	–	2044.6 kg/m3	–
1169 K	–	2044.6 kg/m3	–
1169.3 K	–	2044 kg/m3	–
1169.9 K	–	2043.4 kg/m3	–
1170 K	–	–	216
1170.1 K	–	2042.8 kg/m3	–
1170.6 K	–	2042.7 kg/m3	–
1171.2 K	–	2042.1 kg/m3	–
1171.5 K	–	2041.5 kg/m3	–
1171.9 K	–	2040.9 kg/m3	–
1172.2 K	–	2040.9 kg/m3	–
1172.9 K	–	2040.3 kg/m3	–
1173.2 K	–	2039.7 kg/m3	–
1173.3 K	–	2039.1 kg/m3	–
1173.6 K	–	2039.1 kg/m3	–
1173.8 K	–	2038.5 kg/m3	–
1174.9 K	–	2043.9 kg/m3	–
1175.4 K	–	2043.3 kg/m3	–
1176 K	–	2042.7 kg/m3	–
1176.3 K	–	2042.1 kg/m3	–
1177.1 K	–	2042 kg/m3	–
1177.5 K	–	2041.4 kg/m3	–
1178.4 K	–	2040.7 kg/m3	–
1179.4 K	–	2040 kg/m3	–
1179.7 K	–	2040 kg/m3	–
1180.3 K	–	2039.4 kg/m3	–
1180.5 K	–	2038.3 kg/m3 and 2038.8 kg/m3	–
1180.8 K	–	2037.7 kg/m3	–
1181 K	–	2037.1 kg/m3	–
1181.2 K	–	2037.1 kg/m3	–
1181.6 K	–	2036.5 kg/m3	–
1182.2 K	–	2035.9 kg/m3	–
1182.5 K	–	2035.8 kg/m3	–
1182.8 K	–	2035.2 kg/m3	–
1183.2 K	–	2034.6 kg/m3	–
1183.9 K	–	2034.6 kg/m3	–
1184.1 K	–	2034 kg/m3	–
1184.5 K	–	2033.9 kg/m3	–
1185.8 K	–	2036.5 kg/m3	–
1186.6 K	–	2035.9 kg/m3	–
1187 K	–	2035.3 kg/m3	–
1187.8 K	–	2035.2 kg/m3	–
1188 K	–	–	213.8
1188.4 K	–	2034.6 kg/m3	–
1189.1 K	–	2033.9 kg/m3	–
1189.4 K	–	2033.9 kg/m3	–
1189.9 K	–	2033.3 kg/m3	–
1190.2 K	–	2032.7 kg/m3	–
1190.8 K	–	2032.6 kg/m3	–
1191.6 K	–	2032 kg/m3	–
1192.4 K	–	2031.4 kg/m3	–
1192.9 K	–	2030.7 kg/m3	–
1193.2 K	–	2030.7 kg/m3	–
1193.7 K	–	2030.1 kg/m3	–
1194.1 K	–	2029.5 kg/m3	–
1194.4 K	–	2029.5 kg/m3	–
1194.5 K	–	2028.9 kg/m3	–
1194.7 K	–	2028.3 kg/m3	–
1195.3 K	–	2028.3 kg/m3	–
1195.7 K	–	2027.7 kg/m3	–
1196 K	–	2027.1 kg/m3	–
1196.4 K	–	2027 kg/m3	–
1197.1 K	–	2026.4 kg/m3	–
1197.6 K	–	2026.3 kg/m3	–
1198.3 K	–	2025.7 kg/m3	–
1198.8 K	–	2025.1 kg/m3	–
1199.3 K	–	2025 kg/m3	–
1199.6 K	–	2024.4 kg/m3	–
1200 K	–	2024.4 kg/m3	–
1200.6 K	–	2023.8 kg/m3	–
1200.8 K	–	2023.2 kg/m3	–
1201.2 K	–	2023.2 kg/m3	–
1201.6 K	–	2022.6 kg/m3	–
1202.1 K	–	2022 kg/m3	–
1202.3 K	–	2020.8 kg/m3	–
1202.5 K	–	2020.8 kg/m3	–
1203 K	–	2020.2 kg/m3	–
1203.4 K	–	2020.1 kg/m3	–
1203.7 K	–	2019.6 kg/m3	–
